From article PMC6944208 (Journal of the American Chemical Society, 2019)

Molecular target: T1, MePqqB (Methylobacterium extorquens PqqB, Me PqqB) (Methylorubrum extorquens, UniProt Q49149)
T1 sequence (Q49149 1-299): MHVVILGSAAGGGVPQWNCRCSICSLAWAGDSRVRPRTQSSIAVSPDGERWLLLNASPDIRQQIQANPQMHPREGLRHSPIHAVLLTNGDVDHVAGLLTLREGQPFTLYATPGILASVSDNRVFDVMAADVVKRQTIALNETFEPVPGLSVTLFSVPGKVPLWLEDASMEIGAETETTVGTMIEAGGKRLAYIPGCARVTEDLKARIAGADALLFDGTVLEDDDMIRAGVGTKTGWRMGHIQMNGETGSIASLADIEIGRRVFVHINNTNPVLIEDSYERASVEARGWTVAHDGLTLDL
Test: isothermal titration calorimetry
Assay type: binding

## N[C@@H](CSc1cc(C[C@H](N)C(=O)O)cc(O)c1O)C(=O)O [Cys-DOPA]
  Kd: ~200 nM
